Measurements published in patent US20250000847A1, “TREATMENT OF NEURODEGENERATIVE DISEASES WITH HDAC INHIBITORS” (CASE WESTERN RESERVE UNIVERSITY, priority 2021, published 2025).
Where two headings read alike, the source gives them in different places.

Legend:
HDAC = settings: cell-free assay where stated; read-out: IC50 (pan-HDAC); cited from earlier work
HDACs 2, 3, 6, and 10 = settings: cited from earlier work
HDAC2 = HDAC2 (Homo sapiens, UniProt Q92769); settings: cell-free assays where stated; cited from earlier work
HDAC6 = HDAC6 (Homo sapiens, UniProt Q9UBN7); settings: cell-free assays; cited from earlier work
HDAC1 = HDAC1 (Homo sapiens, UniProt Q13547); settings: cell-free assays where stated; cited from earlier work
HDAC3 = HDAC3 (Homo sapiens, UniProt O15379); settings: cell-free where stated; cited from earlier work
maize HD1B = settings: cell-free assays; cited from earlier work
maize HD2 = settings: cell-free assays; cited from earlier work
maize HD1A = settings: cell-free assays; cited from earlier work
[1] = target: class III isoenzyme SIRT I (Homo sapiens, UniProt Q96EB6); settings: cited from earlier work
HDACs 6 and 7 = settings: cited from earlier work
HDACs 2, 4, 10, and 11 = settings: cited from earlier work
[2] = tested on: HDAC4/5/7/9/11, Sirtuin1, and Sirtuin2; settings: cited from earlier work
HDAC8 = HDAC8 (Homo sapiens, UniProt Q9BY41); settings: cited from earlier work
acetylated H4 and H3 = settings: cited from earlier work
CCL5 = CCL5 secretion by reactive astrocytes (ELISA); type: cell-based, mouse; settings: FIG. 4
Description: Astrocytes were plated and treated exactly as described for the antigen cross presentation assay. However, after 24 hrs of incubation with either reactive astrocyte driving factors alone or with HDAC inhibitor treatment, conditioned media from the cells was collected and assayed for CCL5 using a commercially available colorimetric ELISA kit (RnD Cat #: DY478-05). Data was then fit to a standard four parameter logistic (4PL) curve and presented as pg/mL/cell, normalized to reactive astrocytes plus DMSO vehicle (FIG. 4).
Media was collected from mouse P2 primary astrocytes that had been cultured for 24 hrs in the presence of cytokines with and without HDAC3 inhibitors and compared to media from astrocytes not treated with cytokines. The concentration of CCL5, a cytokine secreted by reactive astrocytes, was measured in each of the respective media conditions based on the direct adsorption of CCL5 to a pre-coated capture antibody on the ELISA assay plate. The ELISA sandwich assay was performed according to the manufacturer's instructions (DY478-05, R&D Systems). Relative CCL5 concentration were measured based on absorbance measured by a plate reader.

RelA/P65 = assay: Nuclear RelA/P65 in reactive astrocytes; type: cell-based, mouse
Description: For immunocytochemistry, cells were fixed with ice-cold 4% PFA for 15 minutes at room temperature, washed three times with PBS, blocked and permeabilized with 10% donkey serum and 0.1% Triton X-100 in PBS for 1 hr, and then stained with primary overnight followed by three washes with PBS, and then 1 hr incubation with Alexaflour secondary antibodies and DAPI. Stained cells were imaged using the PerkinElmer Operetta CLS High-Content Analysis System and analyzed using automated scripts in PerkinElmer Columbus Image Analysis software. Primary antibodies used were GBP2 (ProteinTech, 11854-1-AP), vimentin (BioLegend, 919101), RelA/P65 (Cell Signaling Tech, 6956), MBP (Abeam, AB7349).

[3] = tested on: MHC Class I (H-2Kb) bound to OVA257-264 on reactive astrocytes; assay: OVA257-264 peptide antigen cross presentation assay; type: cell-based, mouse; settings: for treated cells H-2 kB-OVA positive DRAs: reactive astrocytes without inhibitor more than about 80%
Description: To test whether HDAC inhibitors block the ability of reactive astrocytes to cross present exogenous antigen, cells were plated down in 96-well plates at a density of about 500 cells/mm^2. Cells were then treated with HDAC inhibitors for 1 hr prior to the addition of reactive astrocyte driving factors as the concentrations stated above. Cells were incubated for 24 hrs, after which, media was washed out and replaced with media containing the peptide fragment ovalbumin 257-264 (OVA257-264). Cells were then incubated overnight, and then stained for 2 hrs at 37° C. with APC-conjugated antibody against MHC Class I (H-2Kb) bound to OVA257-264, then visualized. The percent of H-2Kb positive cells as a percent of total live cells was determined (FIG. 3).
After 24 hours of treatment, these cells were cultured in the presence of the OVA257264 Peptide (GenScript RP10611 or Sigma S7951). After 12 hours, the cells were live-stained for two hours using a conjugated antibody targeted against an OVA257-264 peptide antigen. The cells were then fixed and imaged using the PerkinElmer Operetta CLS High-Content Analysis System.

Sequence of HDAC3 (O15379 whole entry, species assumed): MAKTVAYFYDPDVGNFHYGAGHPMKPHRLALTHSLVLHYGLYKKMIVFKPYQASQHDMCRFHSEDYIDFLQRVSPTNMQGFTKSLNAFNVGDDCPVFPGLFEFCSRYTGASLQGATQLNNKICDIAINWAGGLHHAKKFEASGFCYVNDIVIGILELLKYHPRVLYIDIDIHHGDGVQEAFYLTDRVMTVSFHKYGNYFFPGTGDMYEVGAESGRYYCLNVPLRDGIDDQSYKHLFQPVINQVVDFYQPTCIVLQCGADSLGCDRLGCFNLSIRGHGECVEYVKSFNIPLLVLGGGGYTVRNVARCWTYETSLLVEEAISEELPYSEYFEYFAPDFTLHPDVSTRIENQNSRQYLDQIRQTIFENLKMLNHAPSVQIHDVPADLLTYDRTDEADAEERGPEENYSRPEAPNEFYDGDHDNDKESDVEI
Sequence of HDAC3 (Q9Y618 395-489 partner limits assumed, species assumed): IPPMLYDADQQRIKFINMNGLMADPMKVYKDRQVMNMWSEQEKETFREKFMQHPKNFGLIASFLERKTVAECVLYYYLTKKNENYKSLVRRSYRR
Sequence of HDAC8 (Q9BY41 whole entry, species assumed): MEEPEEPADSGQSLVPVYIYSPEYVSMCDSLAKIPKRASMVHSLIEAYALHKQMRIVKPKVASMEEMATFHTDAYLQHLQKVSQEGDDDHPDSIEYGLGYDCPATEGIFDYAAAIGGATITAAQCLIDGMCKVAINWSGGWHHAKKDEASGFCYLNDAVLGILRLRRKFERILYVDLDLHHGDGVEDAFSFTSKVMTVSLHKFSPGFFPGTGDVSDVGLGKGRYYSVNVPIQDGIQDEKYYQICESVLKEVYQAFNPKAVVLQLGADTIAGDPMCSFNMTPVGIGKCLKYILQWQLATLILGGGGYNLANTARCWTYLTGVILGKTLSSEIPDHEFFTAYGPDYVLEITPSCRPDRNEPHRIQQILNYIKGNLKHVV
Sequence of HDAC1 (Q13547 whole entry, species assumed): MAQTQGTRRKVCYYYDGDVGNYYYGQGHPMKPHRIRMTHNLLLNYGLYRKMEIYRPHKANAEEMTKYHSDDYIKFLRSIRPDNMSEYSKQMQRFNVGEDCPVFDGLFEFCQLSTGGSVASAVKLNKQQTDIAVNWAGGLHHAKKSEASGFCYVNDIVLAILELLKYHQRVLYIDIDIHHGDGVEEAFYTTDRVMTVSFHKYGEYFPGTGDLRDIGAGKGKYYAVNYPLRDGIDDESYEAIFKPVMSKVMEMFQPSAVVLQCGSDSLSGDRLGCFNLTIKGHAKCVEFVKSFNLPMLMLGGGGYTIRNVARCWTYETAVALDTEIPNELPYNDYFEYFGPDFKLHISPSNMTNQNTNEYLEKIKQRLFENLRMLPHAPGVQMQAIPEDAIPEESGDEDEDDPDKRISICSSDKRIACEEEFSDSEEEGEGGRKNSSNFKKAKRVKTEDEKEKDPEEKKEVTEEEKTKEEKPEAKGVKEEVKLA
Sequence of HDAC2 (Q92769 whole entry, species assumed): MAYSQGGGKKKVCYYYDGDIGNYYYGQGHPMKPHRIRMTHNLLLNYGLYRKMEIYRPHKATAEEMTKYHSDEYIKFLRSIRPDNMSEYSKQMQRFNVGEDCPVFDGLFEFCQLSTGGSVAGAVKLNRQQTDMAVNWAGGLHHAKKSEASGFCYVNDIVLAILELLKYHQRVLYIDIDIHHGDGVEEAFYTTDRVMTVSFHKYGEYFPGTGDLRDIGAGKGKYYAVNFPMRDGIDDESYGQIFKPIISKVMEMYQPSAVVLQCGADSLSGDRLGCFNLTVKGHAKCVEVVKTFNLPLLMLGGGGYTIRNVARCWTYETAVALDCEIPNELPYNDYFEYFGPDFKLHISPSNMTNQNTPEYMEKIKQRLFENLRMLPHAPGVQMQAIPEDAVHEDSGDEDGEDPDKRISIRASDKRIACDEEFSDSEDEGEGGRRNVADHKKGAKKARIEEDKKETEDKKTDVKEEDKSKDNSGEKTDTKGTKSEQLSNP
Sequence of class III isoenzyme SIRT I (Q96EB6 whole entry): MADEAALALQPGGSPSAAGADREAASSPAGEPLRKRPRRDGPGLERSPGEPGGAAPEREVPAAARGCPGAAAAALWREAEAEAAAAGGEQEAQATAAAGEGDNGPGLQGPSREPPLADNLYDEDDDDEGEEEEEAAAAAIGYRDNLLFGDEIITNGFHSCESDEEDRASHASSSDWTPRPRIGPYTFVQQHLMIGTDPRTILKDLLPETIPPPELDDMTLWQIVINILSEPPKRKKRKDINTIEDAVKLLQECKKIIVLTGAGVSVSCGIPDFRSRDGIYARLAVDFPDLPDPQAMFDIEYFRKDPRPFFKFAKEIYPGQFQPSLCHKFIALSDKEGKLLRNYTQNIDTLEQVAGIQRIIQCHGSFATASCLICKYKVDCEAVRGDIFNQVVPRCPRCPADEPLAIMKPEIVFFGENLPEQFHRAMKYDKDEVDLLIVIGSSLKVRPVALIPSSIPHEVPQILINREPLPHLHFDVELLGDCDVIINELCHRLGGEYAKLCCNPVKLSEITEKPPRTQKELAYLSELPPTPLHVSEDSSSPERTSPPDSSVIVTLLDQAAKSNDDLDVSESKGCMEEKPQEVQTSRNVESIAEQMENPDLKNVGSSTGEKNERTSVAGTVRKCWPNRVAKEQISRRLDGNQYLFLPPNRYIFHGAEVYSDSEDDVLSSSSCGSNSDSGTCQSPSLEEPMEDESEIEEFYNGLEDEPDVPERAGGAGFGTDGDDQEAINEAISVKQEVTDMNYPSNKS
Sequence of HDAC6 (Q9UBN7 whole entry, species assumed): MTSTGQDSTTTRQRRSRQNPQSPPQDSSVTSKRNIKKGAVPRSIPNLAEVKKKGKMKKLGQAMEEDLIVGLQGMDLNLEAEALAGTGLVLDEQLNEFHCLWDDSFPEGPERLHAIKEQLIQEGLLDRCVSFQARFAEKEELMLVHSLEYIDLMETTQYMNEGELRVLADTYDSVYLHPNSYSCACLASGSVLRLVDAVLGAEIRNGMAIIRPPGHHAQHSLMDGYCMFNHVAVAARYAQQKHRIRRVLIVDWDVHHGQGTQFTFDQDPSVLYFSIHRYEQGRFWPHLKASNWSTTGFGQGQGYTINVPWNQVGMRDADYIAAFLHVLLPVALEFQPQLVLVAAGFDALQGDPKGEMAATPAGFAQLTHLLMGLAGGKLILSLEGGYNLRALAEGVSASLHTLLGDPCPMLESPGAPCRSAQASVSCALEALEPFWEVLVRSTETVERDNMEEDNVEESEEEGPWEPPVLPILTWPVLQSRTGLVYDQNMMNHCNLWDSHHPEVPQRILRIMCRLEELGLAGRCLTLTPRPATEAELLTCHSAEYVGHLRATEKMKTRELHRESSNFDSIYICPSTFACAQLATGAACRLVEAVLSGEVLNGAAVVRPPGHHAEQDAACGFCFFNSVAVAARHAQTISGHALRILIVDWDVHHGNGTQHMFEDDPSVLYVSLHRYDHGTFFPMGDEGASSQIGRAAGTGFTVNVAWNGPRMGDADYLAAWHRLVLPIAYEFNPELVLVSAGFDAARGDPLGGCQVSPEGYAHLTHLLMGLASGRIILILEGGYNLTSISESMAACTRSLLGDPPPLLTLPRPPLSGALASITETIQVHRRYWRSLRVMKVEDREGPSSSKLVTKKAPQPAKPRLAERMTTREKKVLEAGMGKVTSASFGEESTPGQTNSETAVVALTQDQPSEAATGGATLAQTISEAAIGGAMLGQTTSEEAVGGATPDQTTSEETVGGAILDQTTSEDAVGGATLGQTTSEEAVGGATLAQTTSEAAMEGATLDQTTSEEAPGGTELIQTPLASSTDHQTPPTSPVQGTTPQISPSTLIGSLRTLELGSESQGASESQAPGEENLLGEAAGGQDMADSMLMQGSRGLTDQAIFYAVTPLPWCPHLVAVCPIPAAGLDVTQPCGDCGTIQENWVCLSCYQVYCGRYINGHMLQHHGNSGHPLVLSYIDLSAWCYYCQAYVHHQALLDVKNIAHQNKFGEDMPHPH

CC(C)[C@H](C(=O)Nc1ccc(C(=O)NO)cc1)c1ccccc1 [AR-42]
IC50 (HDAC): 30 nM

CN(C)Cc1c(C(=O)NCCOc2ccc(C(=O)NO)cc2)oc2ccccc12 [Abexinostat]
potency to HDACs 2, 3, 6, and 10 (HDACs 2, 3, 6, and 10): modest potent to HDACs 2, 3, 6, and 10 and greater

Nc1ccccc1NC(=O)c1cnccn1 [BG45]
IC50 (HDAC2): 2200 nM | IC50 (HDAC6): > 20000 nM | IC50 (HDAC1): 2000 nM | IC50 (HDAC3): 289 nM

O=C(/C=C/c1ccc(CN(CCO)CCc2c[nH]c3ccccc23)cc1)NO [Dacinostat]
IC50 (HDAC): 32 nM

CCN(CC)Cc1ccc2cc(COC(=O)Nc3ccc(C(=O)NO)cc3)ccc2c1 [Givinostat]
IC50 (maize HD1B): 7.5 nM | IC50 (maize HD2): 10 nM | IC50 (maize HD1A): 16 nM

CN(C)c1ccc(C(=O)NCCCCCCC(=O)NO)cc1 [M344]
IC50 (HDAC): 100 nM

CCCCc1nc2cc(/C=C/C(=O)NO)ccc2n1CCN(CC)CC [Pracinostat]
activity against the class III isoenzyme SIRT I [1]: no | IC50 (HDAC): 40 to 140 nM

Cn1cc(CNCC2CCN(c3ncc(C(=O)NO)cn3)CC2)c2ccccc21 [Quisinostat]
potency to HDACs 6 and 7 (HDACs 6 and 7): selectivity against HDACs 3, 5, 8, and 9 and lowest | potency to HDACs 2, 4, 10, and 11 (HDACs 2, 4, 10, and 11): modest potent

O=C(CCCCCCNC(=O)c1cnc(N(c2ccccc2)c2ccccc2)nc1)NO [Rocilinostat]
activity against HDAC4/5/7/9/11, Sirtuin1, and Sirtuin2 [2]: minimal | activity against HDAC8 (HDAC8): slight activity

O=C(CCCCCN1C(=O)c2cccc3cccc(c23)C1=O)NO [Scriptaid]
effect on acetylated H4 versus H3 (acetylated H4 and H3): greater effect on acetylated H4 than H3.

Nc1ccccc1NC(=O)c1ccc(-c2cn(CCc3ccsc3)nn2)cc1 [T247]
secretion of CCL5 by reactive astrocytes (CCL5): significantly decrease | nuclear RelA/P65 (RelA/P65): decreases | nuclear RelA/P65 (RelA/P65; listed as T24710): decreased | ability of reactive astrocytes to cross present antigen on MHC Class I ([3]; FIG. 3): decrease | treated cells H-2 kB-OVA positive DRAs ([3]; about 2.5 μM): about 8% | treated cells H-2 kB-OVA positive DRAs ([3]; about 5.0 μM): about 20% | IC50 (HDAC3): 55 nM

Trichostatin A
IC50 (HDAC): ~1.8 nM
